In PubChem BioAssay (NCI) one finds TGI data, which are given here for 13 compounds.

Some test systems named below: OVCAR-3 ovarian; NCI-H226 lung; SN12C renal; MCF7 breast; MDA-MB-231 breast; OVCAR-4 ovarian; LOX IMVI melanoma; UACC-62 melanoma; NCI/ADR-RES ovarian; SK-MEL-28 melanoma.
What all share (assay): NCI tumour cell line growth inhibition, 48 h

Molecules are shown by their SMILES.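 Values below derive from 48-hour exposures of cells grown in 96-well plates, with endpoints linearly interpolated between the two concentrations bracketing the appropriate inhibition level. TGI: total growth inhibition.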

Consider `CC1(C)Oc2ccc(NC(=O)CCC(N)C(=O)O)cc2O1` (stereo not given), for which the TGI with OVCAR-3 ovarian, with NCI-H226 lung, in the experiment on SN12C renal, in the experiment with MCF7 breast, in the experiment on MDA-MB-231 breast and in the experiment on OVCAR-4 ovarian was more than 100 µM throughout. Besides, the TGI in the experiment with LOX IMVI melanoma, in the experiment with UACC-62 melanoma, in the experiment with NCI/ADR-RES ovarian and in the experiment on SK-MEL-28 melanoma was more than 100 µM in each case.
Regarding `COC(=O)[C@@H]1C[C@@]2(C3C=CN(C(=O)C(F)(F)F)C=C3)c3ccccc3N(C(=O)C(F)(F)F)[C@H]2N1C(=O)OC`, the TGI with OVCAR-3 ovarian, with NCI-H226 lung, in the experiment with SN12C renal, with MCF7 breast, in the experiment on MDA-MB-231 breast and in the experiment with OVCAR-4 ovarian was more than 100 µM each time. The TGI with LOX IMVI melanoma, in the experiment with UACC-62 melanoma, in the experiment on NCI/ADR-RES ovarian and in the experiment on SK-MEL-28 melanoma was more than 100 µM each time.
Consider `CCc1c(C)c(C#N)c(=S)n(C2OC(CO)C(O)C(O)C2O)c1C` (stereo not given), for which the TGI in the experiment on OVCAR-3 ovarian, with NCI-H226 lung, in the experiment with SN12C renal, with MCF7 breast, in the experiment with MDA-MB-231 breast and in the experiment on OVCAR-4 ovarian was more than 100 µM each time. Further, the TGI with LOX IMVI melanoma, with UACC-62 melanoma, in the experiment with NCI/ADR-RES ovarian and in the experiment with SK-MEL-28 melanoma was more than 100 µM in each case.
For `COc1cc2c(/C=C3/C(=O)N(c4ccccc4)c4ccccc43)c(Cl)[nH]c2cc1C`, the TGI is 9.66 µM in the experiment on OVCAR-3 ovarian; more than 100 µM with NCI-H226 lung; 6.29 µM with SN12C renal; more than 79 µM in the experiment on MCF7 breast; 27 µM with MDA-MB-231 breast; 6.55 µM in the experiment on OVCAR-4 ovarian. Besides, the TGI with LOX IMVI melanoma was 10.2 µM; in the experiment with UACC-62 melanoma, 27.9 µM; in the experiment on NCI/ADR-RES ovarian, 6.49 µM; in the experiment on SK-MEL-28 melanoma, more than 100 µM.
As for `CCO/C(O)=C(/C(=N)N1CCCC1)C(=O)Nc1cccc(C(F)(F)F)c1`, the TGI with OVCAR-3 ovarian was more than 100 µM; in the experiment on NCI-H226 lung, 83.7 µM; in the experiment on SN12C renal, more than 100 µM; in the experiment with MCF7 breast it was more than 100 µM; in the experiment with MDA-MB-231 breast it was more than 100 µM; in the experiment with OVCAR-4 ovarian, more than 100 µM. Moreover, the TGI in the experiment with LOX IMVI melanoma, in the experiment on UACC-62 melanoma, with NCI/ADR-RES ovarian and in the experiment on SK-MEL-28 melanoma was more than 100 µM each time.
Regarding `CCCCOCn1c(=O)[nH]c(=O)c2cc(Br)ccc21`, the TGI in the experiment with OVCAR-3 ovarian is more than 100 µM; in the experiment on NCI-H226 lung, 46.9 µM; in the experiment with SN12C renal it was more than 100 µM; in the experiment on MCF7 breast, more than 100 µM; in the experiment with MDA-MB-231 breast it was more than 100 µM; in the experiment with OVCAR-4 ovarian it was more than 100 µM. In addition, the TGI was more than 100 µM in the experiment with LOX IMVI melanoma, more than 100 µM in the experiment with UACC-62 melanoma, 40.3 µM in the experiment with NCI/ADR-RES ovarian and more than 100 µM in the experiment with SK-MEL-28 melanoma.
Turning to `Cc1c2c(OCCCCN3CCN(c4ncccn4)CC3)nn(C)c(=O)c2c(C)n1-c1ccccc1`, the TGI was 41.9 µM in the experiment on OVCAR-3 ovarian; 40.8 µM in the experiment with NCI-H226 lung; 34.5 µM in the experiment with SN12C renal; 31.4 µM with MCF7 breast; 30.7 µM in the experiment on MDA-MB-231 breast; 39.1 µM in the experiment with OVCAR-4 ovarian. The TGI is 44.5 µM in the experiment with LOX IMVI melanoma, 31 µM in the experiment on UACC-62 melanoma, 46.2 µM in the experiment with NCI/ADR-RES ovarian and 34.5 µM with SK-MEL-28 melanoma.
Take `NNc1nncn1N`: the TGI with OVCAR-3 ovarian was more than 100 µM; in the experiment with NCI-H226 lung, more than 100 µM; with SN12C renal it was more than 100 µM; in the experiment with MCF7 breast, more than 100 µM; in the experiment on MDA-MB-231 breast, more than 100 µM; in the experiment with OVCAR-4 ovarian, more than 96.7 µM. Also, the TGI with LOX IMVI melanoma, in the experiment on UACC-62 melanoma, in the experiment with NCI/ADR-RES ovarian and with SK-MEL-28 melanoma was more than 100 µM in each case.
Consider `Cn1c2ccccc2c2c3c(c4c5ccccc5n(C)c4c21)C(=O)c1ccccc1C3=O`, for which the TGI is more than 100 µM with OVCAR-3 ovarian; more than 100 µM in the experiment on NCI-H226 lung; more than 100 µM in the experiment on SN12C renal; more than 100 µM with MCF7 breast; 79.1 µM in the experiment with MDA-MB-231 breast; more than 100 µM in the experiment on OVCAR-4 ovarian. Besides, the TGI in the experiment with LOX IMVI melanoma, in the experiment with UACC-62 melanoma, with NCI/ADR-RES ovarian and in the experiment with SK-MEL-28 melanoma was more than 100 µM each time.
`C=C(C)C1CC=C(C)C2(C1)OCC(C)(C)C(C)O2` (stereo not given): the TGI in the experiment with OVCAR-3 ovarian came to 29.9 µM; in the experiment with NCI-H226 lung, 35.7 µM; in the experiment on SN12C renal, 33.4 µM; in the experiment on MCF7 breast, 33.9 µM; with MDA-MB-231 breast, 46.3 µM; in the experiment on OVCAR-4 ovarian, 41.1 µM. The TGI is 31.8 µM in the experiment with LOX IMVI melanoma, 30.4 µM in the experiment with UACC-62 melanoma, 37.5 µM in the experiment with NCI/ADR-RES ovarian and 63.9 µM in the experiment on SK-MEL-28 melanoma.
With `CCOC(=O)C(CS)NC(=O)CCCCCCCC(=O)NC(CS)C(=O)OCC` (stereo not given), the TGI with OVCAR-3 ovarian, in the experiment with NCI-H226 lung, with SN12C renal, in the experiment with MCF7 breast, in the experiment with MDA-MB-231 breast and with OVCAR-4 ovarian was more than 100 µM throughout. The TGI in the experiment with LOX IMVI melanoma, in the experiment with UACC-62 melanoma, with NCI/ADR-RES ovarian and in the experiment on SK-MEL-28 melanoma was more than 100 µM in each case.
Regarding `CC(=O)c1cc2c(s1)C(=O)c1ccccc1C2=O`, the TGI was determined as 11.1 µM in the experiment on OVCAR-3 ovarian; 11.4 µM in the experiment with NCI-H226 lung; 16.3 µM in the experiment with SN12C renal; 6.77 µM in the experiment with MCF7 breast; 41.8 µM with MDA-MB-231 breast; 57 µM in the experiment on OVCAR-4 ovarian. Besides, the TGI with LOX IMVI melanoma came out at 15 µM; in the experiment with UACC-62 melanoma it was 7.01 µM; with NCI/ADR-RES ovarian, 6.17 µM; in the experiment on SK-MEL-28 melanoma it was 36.2 µM.
Take `Cc1cc(=O)oc2cc(O)ccc12`: the TGI in the experiment with OVCAR-3 ovarian, in the experiment with NCI-H226 lung, with SN12C renal, with MCF7 breast, in the experiment with MDA-MB-231 breast and in the experiment with OVCAR-4 ovarian was more than 100 µM in each case. The TGI in the experiment with LOX IMVI melanoma, with UACC-62 melanoma, in the experiment with NCI/ADR-RES ovarian and with SK-MEL-28 melanoma was more than 100 µM in each case.
